# From patent publication US6117975A, “Melanocortin receptor polypeptides MC-3, MC-4, and MC-5” (The Regents of the University of Michigan, priority 1996, dated 2000)
# No end group written: not given here.
# T1: MC1 receptor (Homo sapiens, UniProt Q01726, R163Q/S90T)
# T1 construct: expressed in transfected cells
# T1 sequence (Q01726 1-317 S90T/R163Q): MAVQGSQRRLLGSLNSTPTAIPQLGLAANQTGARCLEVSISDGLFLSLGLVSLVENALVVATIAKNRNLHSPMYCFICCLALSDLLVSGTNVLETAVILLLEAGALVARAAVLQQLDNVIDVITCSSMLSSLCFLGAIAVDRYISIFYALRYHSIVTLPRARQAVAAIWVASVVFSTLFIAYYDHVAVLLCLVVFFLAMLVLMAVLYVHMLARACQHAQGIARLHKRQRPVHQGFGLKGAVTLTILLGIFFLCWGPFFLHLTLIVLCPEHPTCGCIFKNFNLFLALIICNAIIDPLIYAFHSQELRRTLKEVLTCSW
# B1: β-lipotropin (peptide, UniProt P01192 177-267, looked up, listed as Lipotropin beta)
# Lipotropin beta: ELAGAPPEPARDPEAPAEGAAARAELEYGLVAEAEAAEKKDEGPYKMEHFRWGSPPKDKRYGGFMTSEKSQTPLVTLFKNAIVKNAHKKGQ
# notes: product of pro-opiomelanocortin processing
# Assays:
# MC3 receptor [1] = target: T2, MC3 receptor (Homo sapiens, UniProt P41968); assay: cAMP generation in L-cells transfected with the MC3 receptor; type: cell-based; set-up: these were utilized to obtain full-length genomic clones by screening a genomic library; expressed in transfected cells; CMVneo vector
# T2 sequence (P41968 whole entry): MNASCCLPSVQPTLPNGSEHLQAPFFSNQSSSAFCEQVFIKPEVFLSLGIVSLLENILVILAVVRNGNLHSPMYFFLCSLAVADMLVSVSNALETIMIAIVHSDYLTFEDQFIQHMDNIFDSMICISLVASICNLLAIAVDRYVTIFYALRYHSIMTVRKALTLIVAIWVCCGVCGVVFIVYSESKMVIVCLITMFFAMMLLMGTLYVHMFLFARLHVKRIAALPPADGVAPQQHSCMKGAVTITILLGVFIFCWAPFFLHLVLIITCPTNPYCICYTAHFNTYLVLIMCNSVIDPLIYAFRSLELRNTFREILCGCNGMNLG
# Source text: (§1) Receptor Expression. […] The sequences were subsequently checked by nucleotide sequencing to insure that no sequence errors were induced by PCR. L-cells (a mouse fibroblast-like cell line) were transfected using a calcium phosphate co-precipitation method as described in Chen, C. A. et al. Bio/Techniques 6:632-638 (1988). Permanently transfected L-cells were selected by resistance to the neomysin analogue G418, and receptor mRNA expression was checked by Northern blot analysis. […] COS-1 cells which were transiently transfected with the CMVneo/MC4R gene construct by lipofection as described in Feigner, P. L. et al., PNAS (USA) 84:7413-7417 using the Lipofectin Reagent (Life Technologies Inc.) were split into 12-well plates after 24 hr and assayed 36 hr post-transfection.
# (§2) cAMP Assays. For these assays a cAMP assay kit (TRK 432, Amersham Corp.) was employed. […] The cells were maintained in Dulbecco's modified Eagle's medium (GIBCO) containing 4.5 g/100 ml glucose, 10% fetal calf serum, 100 units/ml penicillin and streptomycin, 1 mM sodium pyruvate, and 1 mg/ml Geneticin. […] An aliquot (0.5 ml) of Earle's balanced salt solution was placed into each well along with 5 μl of 2×10^-2 M isobutylmethylxanthine. Varying concentrations of agonist were added, and the cells were incubated to 30 min at 37° C. Ice-cold 30% trichloracetic acid (500 μl/well) was added to stop the reaction and precipitate cellular protein. The cells were scraped and transferred to 16×150-mm glass tubes, then placed on ice for 30 min. The precipitate was then centrifuged for 10 min at 1,900×g, and the supernatant was ether extracted, lyophilized, and resuspended in 50 mM Tris, 2 mM EDTA (pH 7.5). cAMP content was then measured by a competitive binding assay according to the assay instructions.
# MC1 receptor [2] = target: T1, MC1 receptor; assay: cAMP generation in L-cells transfected with the MC1 receptor; type: cell-based
# Source text: as §1, §2
# MC4 receptor [3] = target: T3, MC4 receptor (Homo sapiens, UniProt P32245); assay: cAMP generation in L-cells transfected with the MC4 receptor gene; type: cell-based
# T3 construct: expressed in transfected cells; host or cells: COS-1 (transient, lipofection); Hepa rat hepatoma; CMVneo vector
# T3 sequence (P32245 whole entry): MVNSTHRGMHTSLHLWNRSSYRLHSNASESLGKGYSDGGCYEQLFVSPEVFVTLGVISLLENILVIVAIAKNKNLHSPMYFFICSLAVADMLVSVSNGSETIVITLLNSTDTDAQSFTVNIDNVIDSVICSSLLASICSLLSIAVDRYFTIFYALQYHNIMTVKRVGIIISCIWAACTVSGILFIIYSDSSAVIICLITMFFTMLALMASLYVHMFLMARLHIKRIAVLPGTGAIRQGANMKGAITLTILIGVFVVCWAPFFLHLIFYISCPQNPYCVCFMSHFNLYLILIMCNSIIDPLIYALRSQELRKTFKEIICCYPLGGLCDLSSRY
# Source text: as §1, §2
# mMC5 receptor = target: T4, mMC5 receptor (Mus musculus, UniProt P41149); assay: cAMP generation in L-cells transfected with the mMC5 receptor; type: cell-based
# T4 construct: expressed in transfected cells
# T4 sequence (P41149 whole entry): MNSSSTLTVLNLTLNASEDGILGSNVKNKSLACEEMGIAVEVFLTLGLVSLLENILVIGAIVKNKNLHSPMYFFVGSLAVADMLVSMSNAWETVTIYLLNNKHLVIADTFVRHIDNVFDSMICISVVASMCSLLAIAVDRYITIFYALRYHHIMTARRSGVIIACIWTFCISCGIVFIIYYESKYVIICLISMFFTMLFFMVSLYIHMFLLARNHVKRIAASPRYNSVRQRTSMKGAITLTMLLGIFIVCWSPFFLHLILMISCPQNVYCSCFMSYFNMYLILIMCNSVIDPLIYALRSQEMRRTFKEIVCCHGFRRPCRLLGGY
# Source text: as §1, §2
# MC4 receptor [4] = target: T3, MC4 receptor; assay: cAMP generation in COS-1 cells transiently transfected with the MC4 receptor gene; type: cell-based
# Source text: as §1
# cAMP Assays. For these assays a cAMP assay kit (TRK 432, Amersham Corp.) was employed. […] The cells were maintained in Dulbecco's modified Eagle's medium (GIBCO) containing 4.5 g/100 ml glucose, 10% fetal calf serum, 100 units/ml penicillin and streptomycin, 1 mM sodium pyruvate, and 1 mg/ml Geneticin. […] The precipitate was then centrifuged for 10 min at 1,900×g, and the supernatant was ether extracted, lyophilized, and resuspended in 50 mM Tris, 2 mM EDTA (pH 7.5). cAMP content was then measured by a competitive binding assay according to the assay instructions.
# MC3 receptor [5] = target: T2, MC3 receptor; assay: intracellular cAMP content in Hepa cells transfected with the MC3 receptor; type: cell-based; set-up: these were utilized to obtain full-length genomic clones by screening a genomic library; expressed in transfected cells; CMVneo vector
# Protocol: Receptor Expression. […] The sequences were subsequently checked by nucleotide sequencing to insure that no sequence errors were induced by PCR. […] A rat hepatoma cell line (Hepa) which lacks endogenous melanocortin receptors was also transfected with the CMVneo/MC3R and CMVneo/MC4R constructs.
# cAMP Assays. For these assays a cAMP assay kit (TRK 432, Amersham Corp.) was employed. Cells transfected with the receptors were grown to confluence in 12-well (2.4×1.7 cm) tissue culture plates. The cells were maintained in Dulbecco's modified Eagle's medium (GIBCO) containing 4.5 g/100 ml glucose, 10% fetal calf serum, 100 units/ml penicillin and streptomycin, 1 mM sodium pyruvate, and 1 mg/ml Geneticin. For assays, this medium was removed and cells were washed twice with Earle's balanced salt solution containing 10 mM Hepes (pH 7.4), 1 mM glutamine, 26.5 mM sodium bicarbonate, and 100 mg/ml bovine serum albumin. An aliquot (0.5 ml) of Earle's balanced salt solution was placed into each well along with 5 μl of 2×10^-2 M isobutylmethylxanthine. Varying concentrations of agonist were added, and the cells were incubated to 30 min at 37° C. Ice-cold 30% trichloracetic acid (500 μl/well) was added to stop the reaction and precipitate cellular protein. The cells were scraped and transferred to 16×150-mm glass tubes, then placed on ice for 30 min. The precipitate was then centrifuged for 10 min at 1,900×g, and the supernatant was ether extracted, lyophilized, and resuspended in 50 mM Tris, 2 mM EDTA (pH 7.5). cAMP content was then measured by a competitive binding assay according to the assay instructions.
# Receptor Gene Expression. The coding region of the MC3 receptor gene was subcloned into the eukaryotic expression vector CMVneo using a polymerase chain reaction (PCR) strategy as previously described. […] The insert was subsequently checked by dideoxynucleotide sequencing to insure that no errors were induced by the PCR. […]
# MC1 receptor [6] = conditions: Mountjoy et al. 1992; cited from earlier work
# MC1 receptor [7] = target: T5, MC1 receptor (Homo sapiens, UniProt Q01726); conditions: Chhajlani et al. 1992; cited from earlier work
# T5 construct: host or cells: Cos-7 cells transfected with α-MSH receptor cDNA
# T5 sequence (Q01726 whole entry): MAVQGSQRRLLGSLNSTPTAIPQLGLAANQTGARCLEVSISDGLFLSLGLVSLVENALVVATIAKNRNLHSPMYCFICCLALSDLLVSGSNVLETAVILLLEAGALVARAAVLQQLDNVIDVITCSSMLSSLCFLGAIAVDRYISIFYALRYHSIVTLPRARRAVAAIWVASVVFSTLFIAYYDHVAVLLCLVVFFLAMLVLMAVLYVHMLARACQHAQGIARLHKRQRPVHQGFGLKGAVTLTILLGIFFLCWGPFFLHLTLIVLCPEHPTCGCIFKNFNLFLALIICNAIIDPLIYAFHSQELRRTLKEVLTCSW
# MC3 receptor [8] = target: T2, MC3 receptor; assay: [3H] inositol phosphate (IP) production in Hepa cells transfected with the MC3 receptor
# Source text: Receptor Gene Expression. The coding region of the MC3 receptor gene was subcloned into the eukaryotic expression vector CMVneo using a polymerase chain reaction (PCR) strategy as previously described. […] The insert was subsequently checked by dideoxynucleotide sequencing to insure that no errors were induced by the PCR. A rat hepatoma cell line (Hepa) which lacks endogenous melanocortin receptors was transfected with the CMVneo/MC3 receptor construct using the calcium phosphate co-precipitation method. […] Cells were selected for resistance to the neomycin analogue Geneticin (Life Sciences) and clones were subsequently chosen for high levels of receptor mRNA expression by Northern blot analysis.
# Inositol Phosphate (IP) Assays. Measurement of inositol phospholipid turnover in Hepa cells was performed according to a modification of previously published methods as follows. […] Cells grown to semi-confluence in multiwell plates were prelabeled with [2-^3 H] myo-inositol in DMEM for 24 hr, incubated in EBSS for 30 min, then incubated for another 15 min in EBSS with 10 mM LiCl. The final incubation was in media with experimental ligand added for up to three min after which ice cold 100% methanol was added and the cells were scraped and extracted with 2 ml chloroform, 10 μl HCl (13 N), and 200 μl of 100 mM EDTA in a 50 ml polypropylene tube. The mixture was then vortexed and centrifuged at 1,900 X g. The supernatant was removed and its pH was adjusted to 7.0 by adding 1 N NaOH. Waters Accel plus QMA SEP-PAK anion exchange cartridges (Waters Chromatography, Millipore Corporation, Milford, Mass.) were used to separate inositol phosphates under differing concentrations of formatelformic acid. The cartridges were pretreated by washing with 10 ml of a solution of 1 M ammonium formate in 0.1 M formic acid followed by 20 ml of distilled water. The samples were applied with a flow rate of approximately 10 ml/min using a 10 ml syringe. IPs were then eluted using 10 mM increments of ammonium formate in a stepwise fashion. Inositol monophosphate was eluted with 10 mM formic acid/100 mM ammonium formate/5 mM disodium tetraborate, inositol bisphosphate was eluted with 20 mM formic acid/200 mM ammonium formate/5 mM disodium tetraborate, and IP3 was eluted with 30 mM formic acid/300 mM ammonium formate/5 mM disodium tetraborate. […] Eluted radioactivity from the pooled fractions (total inositol phosphates) were measured by liquid-scintillation spectrometry (Beckman model LS7800 instrument).
# MC4 receptor [9] = target: T3, MC4 receptor; assay: intracellular cAMP content in Hepa cells transfected with the MC4 receptor; type: cell-based
# [10] = system: endogenous vasopressin receptors; assay: intracellular Ca++ concentration in Hepa cells, endogenous vasopressin receptors; type: cell-based, rat
# Protocol: Measurement of Intracellular Ca++ Concentration ([Ca++]i). For these experiments, Hepa cells were detached by incubation in Ca^++ -free EBSS with 2.0 mM EDTA, loaded with 1 μM fura-2/AM (Molecular Probes, Eugene, Oreg.) for 20 min at 37° C. in EBSS containing 0.1% BSA and 25 mM HEPES, washed by centrifugation at 50 X g, and resuspended and maintained in EBSS buffer at room temperature until the time of experimentation. [Ca^++ ]i measurements of cells suspended in a quartz cuvette were obtained using a dual-wavelength modular fluorometer (Spex-Fluorolog 2, Spex Industries, Edison, N.J.) according to previously described methods. DelValle, J. et al., Am. J. Physiol. 262:G420-426 (1992).
# [11] = system: chimeric receptor cH2R/MC3R-3i; assay: [3H] IP production in Hepa cells transfected with chimeric cH2R/hMC3R-3i; type: cell-based; conditions: pretreatment, chimeric cH2R/MC3R-3i
# Source text: Chimeric Receptor. […] The chimeric receptor (cH2R/MC3R-3i) was constructed by cassette mutation at the junction of the fifth and sixth transmembrane domains of cH2R. Six PCR primers were used to generate three DNA fragments which were subsequently ligated together. The three PCR-generated fragments consisted of 1) the 5' coding region of the cH2R receptor beginning just prior to the ATG codon and ending with the 3' end of the fifth transmembrane domain; 2) the portion of the MC3 receptor gene encoding its third intracytoplasmic loop; and 3) the 3' coding region of the cH2R beginning with that segment encoding the 5' end of the sixth transmembrane domain and ending slightly past the termination codon. The DNA fragments were cut with appropriate restriction enzymes at pre-engineered restriction sites designed so that the three fragments could be assembled together in only the correct alignment. Restriction sites were also designed to facilitate subcloning the chimeric receptor DNA into CMVneo and the sequencing vector M13. The nucleotide sequence of the CMVneo cH2R/MC3R-3i construct was confirmed prior to expression in Hepa cells.
# Inositol Phosphate (IP) Assays.
# [12] = read-out: ED50, cAMP generation
molecule,measurement,setting,value
β-endorphin,cAMP response (in words),MC3 receptor [1],neither the MC1 receptor nor the MC3 receptor responded
same,cAMP response (in words),MC1 receptor [2],neither the MC1 receptor nor the MC3 receptor responded
same,cAMP response (in words),MC4 receptor [3],did not respond
same,cAMP response (in words),mMC5 receptor,"Neither were the other products of pro-opiomelanocortin processing, β-endorphin, met-enkephlin, or porcine β-lipotropin active"
"SYSMEHFRWGKPVGKKRRPVKVYPNGAEDESAEAFPLEF [ACTH, ACTH(1-39)] [listing 1 of 2 here]",cAMP response (in words),MC4 receptor [4],marked increase in intracellular cAMP content
same,cAMP production relative to control unstimulated levels at maximal doses,MC3 receptor [5],exceeded 15 times the control
same,cAMP response (in words),MC3 receptor [5],stimulated cAMP production
same,cAMP response (in words),MC3 receptor [1],equal potency and efficacy
same,cAMP response (in words),MC1 receptor [2],equal potency and efficacy
same,cAMP response (in words),MC4 receptor [3],equal potency and efficacy
same,cAMP production via the MC1 receptor (in words),MC1 receptor [6],less potent and less efficacious than α-MSH
same,"affinity in displacing 125I-labeled [Nle4,D-Phe7]α-MSH (in words)",MC1 receptor [7],equal affinities
same,Emax,"MC3 receptor [8]; HepA, read-out: maximal stimulation of [3H]-IP production, % of basal unstimulated value",155%
same,inositol phospholipid turnover dose-response (in words),"MC3 receptor [8]; Hepa cells, MC3 receptor","At low doses (below 10^-11 M) there was a clear stimulatory effect, however, at higher doses, there was a dose dependent inhibitory effect"
CSCC[C@H](N)C(=O)N[C@@H](CCC(=O)O)C(=O)N[C@@H](Cc1c[nH]cn1)C(=O)N[C@@H](Cc1ccccc1)C(=O)N[C@@H](CCCNC(=N)N)C(=O)N[C@@H](Cc1c[nH]c2ccccc12)C(=O)NCC(=O)O [ACTH(4-10)],Emax,"MC4 receptor [9]; read-out: efficacy, % of the maximal response of ACTH (1-13)",30%
NC(=O)CC[C@@H]1NC(=O)[C@H](Cc2ccccc2)NC(=O)[C@H](Cc2ccc(O)cc2)NC(=O)[C@@H](N)CSSC[C@@H](C(=O)N2CCC[C@H]2C(=O)N[C@@H](CCCN=C(N)N)C(=O)NCC(N)=O)NC(=O)[C@H](CC(N)=O)NC1=O [vasopressin],effect on [Ca++]i (in words),[10],increase in [Ca^++ ]i upon stimulation of their endogenous vasopressin receptors
[des-acetyl] α-MSH,cAMP response (in words),MC3 receptor [5],no difference was observed
same,cAMP response (in words),MC3 receptor [1],identical to those observed for ACTH and α-MSH
same,cAMP response (in words),MC1 receptor [2],identical to those observed for ACTH and α-MSH
same,cAMP response (in words),MC4 receptor [9],no difference was observed
CSCC[C@H](NC(=O)[C@@H](NC(=O)[C@@H](N)Cc1ccc(O)cc1)C(C)C)C(=O)NCC(=O)N[C@@H](Cc1c[nH]cn1)C(=O)N[C@@H](Cc1ccccc1)C(=O)N[C@@H](CCCNC(=N)N)C(=O)N[C@@H](Cc1c[nH]c2ccccc12)C(=O)N[C@@H](CC(=O)O)C(=O)N[C@@H](CCCNC(=N)N)C(=O)N1CCC[C@H]1C(=O)NCC(=O)O [Pro^11 y-MSH],"efficacy, intracellular cAMP",MC4 receptor [9]; α-MSH as reference for maximum response,75%
same,EC50,MC4 receptor [9]; α-MSH dose response curve as reference for maximum response,100 nM
[Met]enkephalin,cAMP response (in words),MC3 receptor [1],neither the MC1 receptor nor the MC3 receptor responded
same,cAMP response (in words),MC1 receptor [2],neither the MC1 receptor nor the MC3 receptor responded
same,cAMP response (in words),MC4 receptor [3],did not respond
same,cAMP response (in words),mMC5 receptor,"Neither were the other products of pro-opiomelanocortin processing, β-endorphin, met-enkephlin, or porcine β-lipotropin active"
"CCCC(=O)Nc1ncnc2c1ncn2[C@@H]1O[C@@H]2COP(=O)(O)O[C@H]2[C@H]1OC(=O)CCC [dbcAMP, dibutryl cAMP]",effect on α-MSH stimulated [3H]-IP production (in words),MC3 receptor [8],dose dependently inhibited the level of [^3 H]-IP turnover in response to α-MSH
"SYSMEHFRWGKPVGKKRRPVKVYPNGAEDESAEAFPLEF [ACTH, ACTH(1-39)] [listing 2 of 2 here]",EC50,MC3 receptor [1]; [12],~1 nM
same,EC50,MC1 receptor [2]; [12],~1 nM
same,EC50,"MC4 receptor [3]; read-out: half-maximal effect (EC50), intracellular cAMP",1 nM
"O=S(=O)(NCCNCC=Cc1ccc(Br)cc1)c1cccc2cnccc12 [H-89, N-[2-(p-bromocinnamyl-amino)ethyl]-5-isoquinolinesulfonamide]",effect on inhibitory phase of histamine [3H]-IP dose response curve (in words),[11],abolished by pretreatment with H-89
same,effect on α-MSH stimulated [3H]-IP production (in words),MC3 receptor [8],restoration of the higher levels of [^3 H]-IP products observed with 10^-11 M α-MSH
same,concentration of maximum effect on α-MSH stimulated [3H]-IP production,"MC3 receptor [8]; pretreatment, 10^-8 M α-MSH, Hepa cells, MC3 receptor",1 µM
"Thr^1, Pro^11 y-MSH",cAMP response (in words),MC4 receptor [9],diminished both the potency and efficacy
"Rat ACTH: rat ACTH, which differs from human ACTH in two amino acids (SYSMEHFRWGKPVGKKRRPVKVYPNVAENESAEAFPLEF; Corticotropin; UniProt P01194 124-162, looked up)",cAMP response (in words),mMC5 receptor,produced the same results
B1,cAMP response (in words),MC4 receptor [3],small increase in cAMP
same,cAMP response (in words),mMC5 receptor,"Neither were the other products of pro-opiomelanocortin processing, β-endorphin, met-enkephlin, or porcine β-lipotropin active"
